Data: US20250353819A1, “ARYL HYDANTOIN COMPOUNDS AND METHODS OF USE” (priority 2022, published 2025)
Values joined by “and” are separate entries in the source; they are usually repeats but may differ in a detail not shown here. Identical values can stand only once. Like-named read-outs stand apart in the source and are kept apart here.

What was measured:
[1] = Whole blood to plasma partitioning, human; format: in vitro ADME
[2] = In vitro metabolic stability, rat microsomes; format: in vitro ADME; details: liver microsomes
Protocol: (§1) In Vitro Metabolic Stability. As described by Charman et al. (2020), metabolic stability assays were performed by incubating test compounds in liver microsomes at 37° C. and 0.4 mg/mL protein concentration. The metabolic reaction was initiated by the addition of an NADPH-regenerating system and quenched at various time points over a 60 min incubation period by the addition of acetonitrile containing diazepam as internal standard. Control samples (containing no NADPH) were included (and quenched at 2, 30 and 60 min) to monitor for potential degradation in the absence of cofactor.

[3] = in vivo; design: species or system dog; details: for clearance: read-out: Plasma CL; for AUC(0-t): read-out: mean AUClast; for C0: read-out: mean plasma concentration extrapolated to time zero (C0); for MTD: Beagle dogs, read-out: maximum tolerated dose (MTD); for NOAEL: male and female Beagle dogs, read-out: no observed adverse effect level (NOAEL)
Protocol: The same 2M/2F dogs were used following 2-week washout periods for each dose level in escalation order. This was a survival study and animals were not sacrificed. The following parameters were evaluated: mortality/morbidity, clinical observations, body weights, plasma drug levels, pharmacokinetics and clinical pathology (hematology, coagulation and serum chemistry).

[4] = tested on: S. haematobium; test: S. haematobium infections in hamsters; format: in vivo; details: single 50 mg/kg oral dose
[5] = Photostability; format: physicochemical; details: 500 μg/mL in 50% aq. MeOH, simulated confirmatory and forced degradation sunlight conditions
Protocol: MeOH also was evaluated under simulated confirmatory and forced degradation sunlight conditions.

[6] = In vitro metabolic stability, dog microsomes; format: in vitro ADME; details: liver microsomes
Protocol: as §1

[7] = tested on: androgen-receptor; test: DHT-induced (KLK3, FKBP5) and DHT-repressed (ZFP36L1) transcripts in LAPC4 cells; format: cell-based; details: Compound IE up to 10 μM
[8] = tested on: S. japonicum; test: S. japonicum infections in mice; format: in vivo
[9] = tested on: adult S. mansoni; test: ex vivo exposure of adult S. mansoni; design: species or system Schistosoma mansoni; details: S. mansoni worms exposed ex vivo
Text: Without wishing to be bound to any particular theory, it is believed that the activity of the disclosed compounds is mediated at least in part by a host effect.

[10] = beagle, dog, in vivo, female dogs, iv 1 mg/kg
[11] = beagle, dog, in vivo, male dogs, iv 1 mg/kg
[12] = both sexes, dog, in vivo, single po administration

**Q.** With `[2H]C([2H])([2H])C1(C([2H])([2H])[2H])NC(=O)N(c2ccc(F)c(C(C)(F)F)c2)C1=O` [Compound IE, 3-(3-(1,1-difluoroethyl)-4-fluorophenyl)-5,5-bis(methyl-d3)imidazolidine-2,4-dione] as the compound, how does the “B:P” value [1] read?
**A.** 0.78±0.035 and 0.78

**Q.** And the microsomal CLint [2]?
**A.** < 7 µL/min/mg

**Q.** What about the AUC ([3]; beagle, dog, in vivo, female dogs (n = 2), IV 1 mg/kg, read-out: Plasma AUCIV 0-last) of the same compound?
**A.** 405 µg·h/mL

**Q.** And the clearance ([3]; beagle, dog, in vivo, female dogs (n = 2), IV 1 mg/kg)?
**A.** 1.92 mL/h/kg

**Q.** And the AUC ([3]; beagle, dog, in vivo, female dogs (n = 2), PO 15 mg/kg, read-out: Plasma AUCoral 0-last)?
**A.** 7030 µg·h/mL

**Q.** And the Cmax ([3]; beagle, dog, in vivo, female dogs (n = 2), PO 15 mg/kg, read-out: Plasma Cmax)?
**A.** 42700 ng/mL

**Q.** And the AUC(0-t) [3, 10]?
**A.** 377 µg·h/mL

**Q.** What about the Cmax ([3]; beagle, dog, in vivo, female dogs, iv 1 mg/kg, read-out: mean peak plasma concentration (Cmax)) of the same compound?
**A.** 12500 ng/mL

**Q.** And the C0 [3, 10]?
**A.** 18800 ng/mL

**Q.** And the AUC ([3]; beagle, dog, in vivo, male dogs (n = 2), IV 1 mg/kg, read-out: Plasma AUCIV 0-last)?
**A.** 526 µg·h/mL

**Q.** What about the clearance ([3]; beagle, dog, in vivo, male dogs (n = 2), IV 1 mg/kg) of the same compound?
**A.** 1.44 mL/h/kg

**Q.** And the AUC ([3]; beagle, dog, in vivo, male dogs (n = 2), PO 15 mg/kg, read-out: Plasma AUCoral 0-last)?
**A.** 8800 µg·h/mL

**Q.** And the Cmax ([3]; beagle, dog, in vivo, male dogs (n = 2), PO 15 mg/kg, read-out: Plasma Cmax)?
**A.** 51900 ng/mL

**Q.** What about the AUC(0-t) [3, 11] of the same compound?
**A.** 485 µg·h/mL

**Q.** And the Cmax ([3]; beagle, dog, in vivo, male dogs, iv 1 mg/kg, read-out: mean peak plasma concentration (Cmax))?
**A.** 6880 ng/mL

**Q.** And the C0 [3, 11]?
**A.** 9460 ng/mL

**Q.** What about the Tmax ([3]; both sexes, beagle, dog, in vivo, dogs, po dose groups 15, 75, 150 mg/kg, read-out: time of peak plasma concentrations (Tmax)) of the same compound?
**A.** 0.25 to 24 h

**Q.** What about the MTD ([3]; both sexes, dog, in vivo, 1 mg/kg, single iv administration) of the same compound?
**A.** > 1 mg/kg

**Q.** And the MTD [3, 12]?
**A.** > 150 mg/kg

**Q.** And the NOAEL ([3]; both sexes, dog, in vivo, single iv administration)?
**A.** ≥ 1 mg/kg

**Q.** And the NOAEL [3, 12]?
**A.** ≥ 150 mg/kg

**Q.** What about the “Bioavailability, determined using AUClast” value ([3]; both, beagle, dog, in vivo, po) of the same compound?
**A.** greater than 100%

**Q.** What about the “increase in AUClast, 150 mg/kg compared to mid-dose” value ([3]; both, beagle, dog, in vivo, po, 150 mg/kg) of the same compound?
**A.** 2-3 fold

**Q.** And the PlasmaVSS ([3]; female, beagle, dog, in vivo, iv, 1 mg/kg)?
**A.** 0.45 L/kg

**Q.** What about the half-life ([3]; female, beagle, dog, in vivo, iv, 1 mg/kg, female dogs (n = 2), IV 1 mg/kg, read-out: Apparent t1/2 (converted)) of the same compound?
**A.** 5.12 days

**Q.** And the half-life ([3]; female, beagle, dog, in vivo, iv, 1 mg/kg, female dogs, iv 1 mg/kg, read-out: mean elimination phase half-life (t1/2) (converted))?
**A.** 6.33 days

**Q.** And the “BA based on AUC0-last” value ([3]; female, beagle, dog, in vivo, po, 15 mg/kg)?
**A.** 115%

**Q.** What about the half-life ([3]; female, beagle, dog, in vivo, po, 150 mg/kg, female dogs, po 150 mg/kg, read-out: mean t1/2 (converted)) of the same compound?
**A.** 16.8 days

**Q.** And the “Apparent t1/2” value ([3]; male dogs (n = 2), PO 15 mg/kg)?
**A.** 237 h

**Q.** What about the PlasmaVSS ([3]; male, beagle, dog, in vivo, iv, 1 mg/kg) of the same compound?
**A.** 0.36 L/kg

**Q.** What about the half-life ([3]; male, beagle, dog, in vivo, iv, 1 mg/kg, male dogs (n = 2), IV 1 mg/kg, read-out: Apparent t1/2 (converted)) of the same compound?
**A.** 6.46 days

**Q.** What about the half-life ([3]; male, beagle, dog, in vivo, iv, 1 mg/kg, male dogs, iv 1 mg/kg, read-out: mean elimination phase half-life (t1/2) (converted)) of the same compound?
**A.** 6.96 days

**Q.** What about the “BA based on AUC0-last” value ([3]; male, beagle, dog, in vivo, po, 15 mg/kg) of the same compound?
**A.** 111%

**Q.** And the half-life ([3]; male, beagle, dog, in vivo, po, 15 mg/kg, male dogs (n = 2), PO 15 mg/kg, read-out: Apparent t1/2 (converted))?
**A.** 9.88 days

**Q.** And the half-life ([3]; male, beagle, dog, in vivo, po, 75 mg/kg, male dogs, po 75 mg/kg, read-out: mean t1/2 (converted))?
**A.** 14.2 days

**Q.** And the “clearance of S. haematobium infections” value [4]?
**A.** completely cleared

**Q.** And the “loss of parent compound (photostability)” value [5]?
**A.** < 3%

**Q.** And the microsomal CLint [6]?
**A.** < 7 µL/min/mg

**Q.** And the “levels of DHT-induced (KLK3, FKBP5) and DHT-repressed (ZFP36L1) transcripts” value [7]?
**A.** no effect

**Q.** And the ED50 ([8]; Schistosoma japonicum, oral)?
**A.** 6.7 mg/kg

**Q.** What about the “clearance of S. japonicum infections” value ([8]; single 25 mg/kg oral dose) of the same compound?
**A.** completely cleared

**Q.** What about the “changes via transcriptomic and ultraresolution microscopy” value [9] of the same compound?
**A.** no significant changes
